In assay [1] the test system is Plasmodium falciparum 3D7. In words: Infection rate in 2% culture with white LED irradiation (Example 8). Type of assay: cell-based. Conditions: ALA hydrochloride 200 μM; starting infection rate 2%; 8 hours culture, white LED 15 minutes, further 8 hours. Here is the method:
(§1) A culture medium was prepared in the same manner as in Example 5 with the exception that 2 ml of a culture medium having an infection rate of 2% was used. To the thus prepared culture medium, iron (II) chloride (final concentration: 10 μM) and ALA hydrochloride (final concentration: 200 μM) were added, followed by culture for 8 hours. Thereafter, the infection rate was measured by Giemsa staining.
ALA hydrochloride was added to a final concentration of 200 μM to a culture medium that had been prepared in the same manner as in Example 7. The obtained mixture was cultured for 8 hours, and thereafter, irradiated with white LED for 15 minutes. The resultant was further cultured for 8 hours, and the infection rate was then measured by Giemsa staining.

In assay [2] the test system is Plasmodium falciparum 3D7. In words: Infection rate in culture medium with high starting infection rate of 2%, 8 hours culture (Example 7). It is filed as cell-based. Particulars: ALA hydrochloride 200 μM + iron (II) chloride 10 μM; starting infection rate 2%; culture for 8 hours; nothing added: 3.1%. Here is the method:
(§2) An iron (II) chloride aqueous solution was added to 1 ml of Plasmodium falciparum 3D7 culture medium having an infection rate of 0.3% to a final concentration of 0.1, 1, 10, and 100 μM. As a control, a culture medium to which sterilized water had been added was used. Three culture media were prepared for each of the aforementioned concentrations, and a 12-well plate was used. After each culture medium had been cultured for 48 hours, the infection rate was measured by Giemsa staining. In addition, as for an ALA-added medium, an ALA chloride aqueous solution was added to the medium to a final concentration of 200 μM, and an iron (II) chloride aqueous solution was then added thereto to a final concentration of 0.1, 1, 10, and 100 μM. As described above, the culture medium was cultured for 48 hours, and the infection rate was then measured by Giemsa staining.
as §1

For assay [3], the system named is Plasmodium falciparum 3D7. Briefly: Infection (proliferation) rate of Plasmodium falciparum 3D7 in random culture, Giemsa staining (Example 5). It is filed as cell-based. Particulars: 48 hours. Here is the method:
as §2
(§3) The infection (proliferation) rate (%) was calculated using the following formula: [(Infection rate after 48 hours−infection rate at initiation of culture)/(infection rate of control after 48 hours−infection rate at initiation of culture)]×100. It is to be noted that the infection rate at initiation of the culture was set at 0.3%.
The ratio of an increase in the infection rate caused by culture was indicated by setting a region to which neither iron nor ALA was added at 100%.

The test system of a further assay is malaria parasites. Conditions: cited from earlier work.
For assay [4], the system named is Plasmodium falciparum 3D7. In words: Infection rate of Plasmodium falciparum 3D7 in synchronized culture at the ring stage (Example 6). Type of assay: cell-based. The method, then: as §2, §3
According to a common method, there was prepared a Plasmodium falciparum 3D7 culture medium having an infection rate of 0.3%, which was subjected to synchronized culture at the ring stage by treating with 5% sorbitol. The infection rate was measured by the same method as that described in Example 5. The final concentration of ALA hydrochloride was set at 200 μM.

The test system of assay [5] is chloroquine-resistant malaria parasites. Briefly: Administration to a malaria patient not responding to chloroquine (Example 3). Type of assay: in vivo, human. Conditions: predetermined amount of chloroquine alone, body temperature kept around 38 degrees. The method, then: A predetermined amount of chloroquine was administered to a patient who developed malaria. […] They suffered from headache, vertigo and nausea, and their body temperature was kept around 38 degrees. While administering chloroquine, a single capsule of the same capsule as used in Example 1 was also administered to the patient once a day. […] After administration of the capsule for 3 days, administration was suspended.

Take `Cl.NCC(=O)CCC(=O)O` [ALA hydrochloride]: the infection rate was 1.8% in assay [1] and 0.47% in assay [2].
Regarding `NCC(=O)CCC(=O)O` [ALA, 5-aminolevulinic acid], the “Infection Rate (%) by Random Culture” value in assay [3] (ALA 200 μM + iron (II) chloride 0.1 μM) is recorded as 88%; in assay [3] (ALA 200 μM + iron (II) chloride 1 μM), 86%; in assay [3] (ALA 200 μM + iron (II) chloride 10 μM), 59%; in assay [3] (ALA 200 μM + iron (II) chloride 100 μM), 57%; in assay [3] (ALA 200 μM, no iron (II) chloride) it was 96%. Further, the “parasiticidal effect of PDT” value in the assay on malaria parasites (ALA 0.2 mM in medium, light irradiation from projector lamp of 410 W for 30 minutes) is reported as “sufficient parasiticidal effect”. In addition, in the assay with malaria parasites (illumination with ordinary indoor light), the “ALA concentration in medium needed for PDT therapy to exhibit some effect” value was 2 mM. Also, the “Infection Rate by Synchronized Culture (Ring Stage)” value in assay [4] (ALA hydrochloride 200 μM + iron (II) chloride 0.1 μM) is given as 69%; in assay [4] (ALA hydrochloride 200 μM + iron (II) chloride 1 μM) it was 58%; in assay [4] (ALA hydrochloride 200 μM + iron (II) chloride 10 μM) it was 51%; in assay [4] (ALA hydrochloride 200 μM + iron (II) chloride 100 μM), 5%; in assay [4] (ALA hydrochloride 200 μM, no iron (II) chloride), 95%.
For the compound `CCN(CC)CCCC(C)Nc1ccnc2cc(Cl)ccc12` (stereo not shown) [chloroquine], the effect on malaria result in assay [5] was “sufficient effects could not be obtained”.
For `[Cl][Fe][Cl]` [iron (II) chloride, reference compound], the “Infection Rate (%) by Random Culture” value in assay [3] (without ALA, iron (II) chloride 0.1 μM, no iron/no ALA = 100%) was found to be 98%; in assay [3] (without ALA, iron (II) chloride 1 μM, no iron/no ALA = 100%), 97%; in assay [3] (without ALA, iron (II) chloride 10 μM, no iron/no ALA = 100%) it was 95%; in assay [3] (without ALA, iron (II) chloride 100 μM, no iron/no ALA = 100%), 82%.

These data come from US9463175B2, “Antimalarial drug which contains 5-aminolevulinic acid or derivative thereof as active ingredient” (SBI Pharmaceuticals Co., Ltd., priority 2010, dated 2016).
